Laboratory results published in ChEMBL document CHEMBL3102853, “Carbonic anhydrase inhibitors. Synthesis, and molecular structure of novel series N-substituted N'-(2-arylmethylthio-4-chloro-5-methylbenzenesulfonyl)guanidines and their inhibition of human cytosolic isozymes I and II and the transmembrane tumor-associated isozymes IX and XII” (Eur J Med Chem, 2014).
Active and inactive are the calls of the source. The rule behind the calls is not given here.

Experiments:
Assay type in all cases: functional
Hs-578T = assay: Cytotoxicity against human Hs 578T cells at 10 uM
MDA-MB-468 = assay: Cytotoxicity against human MDA-MB-468 cells at 10 uM; details: read-out: GI
MCF7 = assay: Cytotoxicity against human MCF7 cells at 10 uM; details: read-out: GI
T47D = assay: Cytotoxicity against human T47D cells at 10 uM; details: read-out: GI
DU-145 = assay: Cytotoxicity against human DU145 cells at 10 uM
PC-3 = assay: Cytotoxicity against human PC3 cells at 10 uM; details: read-out: GI
A498 = assay: Cytotoxicity against human A498 cells at 10 uM
NCI/ADR-RES = assay: Cytotoxicity against human NCI-ADR-RES cells at 10 uM
LOX IMVI = assay: Cytotoxicity against human LOXIMVI cells at 10 uM; details: read-out: GI
OVCAR-3 = assay: Cytotoxicity against human OVCAR3 cells at 10 uM
UACC-62 = assay: Cytotoxicity against human UACC62 cells at 10 uM
SK-MEL-2 = assay: Cytotoxicity against human SK-MEL-2 cells at 10 uM
SF-268 = assay: Cytotoxicity against human SF268 cells at 10 uM
SW-620 = assay: Cytotoxicity against human SW620 cells at 10 uM
SNB-75 = assay: Cytotoxicity against human SNB75 cells at 10 uM; details: read-out: GI
KM12 = assay: Cytotoxicity against human KM12 cells at 10 uM
HT-29 = assay: Cytotoxicity against human HT-29 cells at 10 uM
HOP-92 = assay: Cytotoxicity against human HOP92 cells at 10 uM; details: read-out: GI
NCI-H460 = assay: Cytotoxicity against human NCI-H460 cells at 10 uM
A549 = assay: Cytotoxicity against human A549 cells at 10 uM
SR = assay: Cytotoxicity against human SR cells at 10 uM
MOLT-4 = assay: Cytotoxicity against human MOLT4 cells at 10 uM; details: read-out: GI
RPMI-8226 = assay: Cytotoxicity against human RPMI8226 cells at 10 uM
K562 = assay: Cytotoxicity against human K562 cells at 10 uM; details: read-out: GI
HL-60(TB) = assay: Cytotoxicity against human HL-60(TB) cells at 10 uM; details: read-out: GI

Cc1cc(S(=O)(=O)NC(=N)Nc2nnc(S(N)(=O)=O)s2)c(SCc2ccccc2)cc1Cl
growth inhibition (GI) (Hs-578T): inactive | inhibition of growth at 10 µM (MDA-MB-468): 11% | inhibition of growth at 10 µM (MCF7): 11% | inhibition of growth at 10 µM (T47D): 6% | growth inhibition (GI) (DU-145): inactive | inhibition of growth at 10 µM (PC-3): 3% | growth inhibition (GI) (A498): inactive | growth inhibition (GI) (NCI/ADR-RES): inactive | inhibition of growth at 10 µM (LOX IMVI): 4% | growth inhibition (GI) (OVCAR-3): inactive | growth inhibition (GI) (UACC-62): inactive | growth inhibition (GI) (SK-MEL-2): inactive | growth inhibition (GI) (SF-268): inactive | growth inhibition (GI) (SW-620): inactive | inhibition of growth at 10 µM (SNB-75): 18% | growth inhibition (GI) (KM12): inactive | growth inhibition (GI) (HT-29): inactive | inhibition of growth at 10 µM (HOP-92): 1% | growth inhibition (GI) (NCI-H460): inactive | growth inhibition (GI) (A549): inactive | growth inhibition (GI) (SR): inactive | inhibition of growth at 10 µM (MOLT-4): 14% | growth inhibition (GI) (RPMI-8226): inactive | inhibition of growth at 10 µM (K562): 2% | inhibition of growth at 10 µM (HL-60(TB)): 15%
